From US11000033B2, “Ketone or oxime compound, and herbicide” (NISSAN CHEMICAL CORPORATION, priority 2014, dated 2021)

How the values were obtained:
Assay type in all cases: in vivo
[1] = test system: Echinochloa oryzacola Vasing.; experiment: Test Example 1: herbicidal activity, application before weed generation in submerged conditions (symbol A); details: application herbicide amount 320 g/ha
In short: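 Flooded alluvial soil (4 cm water) was mixed-sown with the three weed species, and 2.5-leaf rice seedlings were transplanted. On sowing day, a water-diluted emulsion at a predetermined rate was applied to the water surface. After 3 weeks in a 25–30 °C greenhouse, effect was scored 0–5.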

wheat = experiment: Test Example 4: effect on crop by soil treatment (symbol e); details: application herbicide amount 320 g/ha
In short: (§1)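 Grown at 25° C. to 30° C. in a greenhouse, the crops came from seed sown spot-wise in sterilized diluvial soil under roughly 1.5 cm of covering soil.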

[2] = test system: directly sowed rice plant; experiment: Test Example 3: effect on crop by foliage application, Wagner pot (symbol b); details: application herbicide amount 320 g/ha
In short: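 Steps: fill a 1/10000-are Wagner pot with alluvial soil; add water and mix to submerge at 0.1–0.5 cm depth; sow rice plus Echinochloa crus-galli var. crus-galli, Leptochloa chinensis and Cyperus difformis; grow in a 25–30 °C greenhouse.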

Chenopodium album = experiment: Test Example 5: herbicidal effect by foliage application, plastic box (symbol O); details: 320 g/ha, 3 weeks after application
In short: (§2)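 Sowing in sterilized diluvial soil, 14 days' greenhouse growth at 25° C. to 30° C., then uniform small-sprayer foliar application of aqueous emulsion dilution; plants scored three weeks afterwards.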

transplanted rice plant = experiment: Test Example 1: effect on crop, application before weed generation in submerged conditions (symbol a); details: application herbicide amount 320 g/ha
In short: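 Alluvial soil pots flooded to 4 cm water, sown with Echinochloa oryzacola, Scirpus juncoides and Monochoria vaginalis, then transplanted with 2.5 leaf stage rice seedlings; pre-emergence application. Greenhouse 25° C. to 30° C.; scored 0–5 by herbicidal ratio 3 weeks after application.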

Cyperus difformis = experiment: Test Example 3: herbicidal effect by foliage application, Wagner pot (symbol E); details: application herbicide amount 320 g/ha
In short: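 Herbicidal activity was rated three weeks after a foliar spray of diluted emulsion concentrate, applied at a predetermined dose to plants grown for 14 days from seed in waterlogged alluvial soil within a 25–30 °C greenhouse.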

Lolium multiflorum Lam. = experiment: Test Example 5: herbicidal effect by foliage application, plastic box (symbol K); details: 320 g/ha, 3 weeks after application
In short: as §2

corn = experiment: Test Example 5: effect on crop by foliage application, plastic box (symbol c); details: 320 g/ha, 3 weeks after application
In short: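 Soil: sterilized diluvial. Container: plastic box, 21 × 13 cm, 7 cm deep. Sowing: spot-like, ~1.5 cm cover. Growth: greenhouse, 25° C. to 30° C.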

Scirpus juncoides = experiment: Test Example 2: herbicidal activity, application during weed generation in submerged conditions (symbol B); details: Table 23; application herbicide amount 320 g/ha; grade 0-5 by criteria of Test Example 1
In short: (§3)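 Visual herbicidal ratings, taken three weeks after dosing, reflect post-emergence water-surface application to seedlings at one to two leaves. Conditions: co-sown weeds in alluvial soil flooded to 4 cm, greenhouse held at 25° C. to 30° C.; compound given as water-diluted emulsion at a fixed herbicide amount.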

Monochoria vaginalis = experiment: Test Example 2: herbicidal activity, application during weed generation in submerged conditions (symbol C); details: Table 23; application herbicide amount 320 g/ha; grade 0-5 by criteria of Test Example 1
In short: as §3

soybean = experiment: Test Example 4: effect on crop by soil treatment (symbol d); details: application herbicide amount 320 g/ha
In short: as §1

rice = experiment: Test Example 4: effect on crop by soil treatment (symbol b); details: application herbicide amount 320 g/ha
In short: as §1

Avena fatua = experiment: Test Example 5: herbicidal effect by foliage application, plastic box (symbol I); details: 320 g/ha, 3 weeks after application
In short: as §2

Row | SMILES | Herbicidal effect grade, A: Echinochloa oryzacola Vasing. [1] | e (wheat) effect on crop grade (wheat) | effect on crop b (directly sowed rice plant), grade 0-5 [2] | O: Chenopodium album, herbicidal effect grade (Chenopodium album) | Effect grade on crop, a: transplanted rice plant (transplanted rice plant) | herbicidal effect on E, grade 0-5 (Cyperus difformis) | K: Lolium multiflorum Lam., herbicidal effect grade (Lolium multiflorum Lam.) | c: corn, effect on crop grade (corn) | Herbicidal effect grade, B: Scirpus juncoides (Scirpus juncoides) | Herbicidal effect grade, C: Monochoria vaginalis (Monochoria vaginalis) | d (soybean) effect on crop grade (soybean) | b (directly sowed rice plant) effect on crop grade (rice) | I: Avena fatua, herbicidal effect grade (Avena fatua)
1 | CC(CC1CC(O)=C(c2c(C)cc(C)cc2C)C1=O)=NOCC1CC1 (centres unmarked) [1-024] | 5 (Herbicidal ratio of 90% or more (almost completely withered)) | 4 (Herbicidal ratio of 70% or higher and lower than 90%) | 5 (Herbicidal ratio of 90% or more (almost completely withered)) | 1 (Herbicidal ratio of 5% or higher and lower than 20%) | 5 (Herbicidal ratio of 90% or more (almost completely withered)) | 5 (Herbicidal ratio of 90% or more (almost completely withered)) | 5 (Herbicidal ratio of 90% or more (almost completely withered)) | 5 (Herbicidal ratio of 90% or more (almost completely withered)) | 5 (Herbicidal ratio of 90% or more (almost completely withered)) | 3 (Herbicidal ratio of 40% or higher and lower than 70%) | 1 (Herbicidal ratio of 5% or higher and lower than 20%) | 5 (Herbicidal ratio of 90% or more (almost completely withered)) | 5 (Herbicidal ratio of 90% or more (almost completely withered))
2 | CC(CC1CC(O)=C(c2c(C)cc(C)cc2C)C1=O)=NOCC(=O)N1CCOCC1 (centres unmarked) [1-025] | 4 (Herbicidal ratio of 70% or higher and lower than 90%) | 0 (Herbicidal ratio of 5% or lower (almost no effect)) | 5 (Herbicidal ratio of 90% or more (almost completely withered)) | 4 (Herbicidal ratio of 70% or higher and lower than 90%) | 3 (Herbicidal ratio of 40% or higher and lower than 70%) | 5 (Herbicidal ratio of 90% or more (almost completely withered)) | 5 (Herbicidal ratio of 90% or more (almost completely withered)) | 3 (Herbicidal ratio of 40% or higher and lower than 70%) | 0 (Herbicidal ratio of 5% or lower (almost no effect)) | 0 (Herbicidal ratio of 5% or lower (almost no effect)) | 0 (Herbicidal ratio of 5% or lower (almost no effect)) | 5 (Herbicidal ratio of 90% or more (almost completely withered)) | 5 (Herbicidal ratio of 90% or more (almost completely withered))
3 | CC(CC1CC(O)=C(c2c(C)cc(C)cc2C)C1=O)=NOCc1ccccc1F (centres unmarked) [1-026] | 5 (Herbicidal ratio of 90% or more (almost completely withered)) | 2 (Herbicidal ratio of 20% or higher and lower than 40%) | 5 (Herbicidal ratio of 90% or more (almost completely withered)) | 3 (Herbicidal ratio of 40% or higher and lower than 70%) | 5 (Herbicidal ratio of 90% or more (almost completely withered)) | 5 (Herbicidal ratio of 90% or more (almost completely withered)) | 5 (Herbicidal ratio of 90% or more (almost completely withered)) | 3 (Herbicidal ratio of 40% or higher and lower than 70%) | 3 (Herbicidal ratio of 40% or higher and lower than 70%) | 3 (Herbicidal ratio of 40% or higher and lower than 70%) | 0 (Herbicidal ratio of 5% or lower (almost no effect)) | 4 (Herbicidal ratio of 70% or higher and lower than 90%) | 1 (Herbicidal ratio of 5% or higher and lower than 20%)
4 | CC(CC1CC(O)=C(c2c(C)cc(C)cc2C)C1=O)=NOCC(C)O (centres unmarked) [1-027] | 4 (Herbicidal ratio of 70% or higher and lower than 90%) | 3 (Herbicidal ratio of 40% or higher and lower than 70%) | 5 (Herbicidal ratio of 90% or more (almost completely withered)) | 1 (Herbicidal ratio of 5% or higher and lower than 20%) | 4 (Herbicidal ratio of 70% or higher and lower than 90%) | 5 (Herbicidal ratio of 90% or more (almost completely withered)) | 5 (Herbicidal ratio of 90% or more (almost completely withered)) | 5 (Herbicidal ratio of 90% or more (almost completely withered)) | 3 (Herbicidal ratio of 40% or higher and lower than 70%) | 0 (Herbicidal ratio of 5% or lower (almost no effect)) | 0 (Herbicidal ratio of 5% or lower (almost no effect)) | 5 (Herbicidal ratio of 90% or more (almost completely withered)) | 5 (Herbicidal ratio of 90% or more (almost completely withered))
5 | CC(CC1CC(O)=C(c2c(C)cc(C)cc2C)C1=O)=NOCC(F)(F)F (centres unmarked) [1-028] | 5 (Herbicidal ratio of 90% or more (almost completely withered)) | 4 (Herbicidal ratio of 70% or higher and lower than 90%) | 5 (Herbicidal ratio of 90% or more (almost completely withered)) | 3 (Herbicidal ratio of 40% or higher and lower than 70%) | 5 (Herbicidal ratio of 90% or more (almost completely withered)) | 5 (Herbicidal ratio of 90% or more (almost completely withered)) | 5 (Herbicidal ratio of 90% or more (almost completely withered)) | 4 (Herbicidal ratio of 70% or higher and lower than 90%) | 4 (Herbicidal ratio of 70% or higher and lower than 90%) | 0 (Herbicidal ratio of 5% or lower (almost no effect)) | 0 (Herbicidal ratio of 5% or lower (almost no effect)) | 5 (Herbicidal ratio of 90% or more (almost completely withered)) | 4 (Herbicidal ratio of 70% or higher and lower than 90%)
